These results are taken from US8691865B2 (AbbVie Inc., priority 2008, dated 2014).

Usually pIC50 stands for the IC50 on a negative log10 scale, so that one unit is a factor of ten. Usually IC50 stands for the concentration that gives 50% inhibition.

pIC50: −log10 of the molar value. A value given as a limit tells only on which side of the number the result lay.

For one experiment, the target named is human Cav2.2 (Homo sapiens, UniProt Q00975). The experiment in a line: Assessment of calcium channel activity using FLIPR (Ca2+ influx in IMR32 cells). The experiment is classed as cell-based.
Chain of human Cav2.2 (Q00975 whole entry): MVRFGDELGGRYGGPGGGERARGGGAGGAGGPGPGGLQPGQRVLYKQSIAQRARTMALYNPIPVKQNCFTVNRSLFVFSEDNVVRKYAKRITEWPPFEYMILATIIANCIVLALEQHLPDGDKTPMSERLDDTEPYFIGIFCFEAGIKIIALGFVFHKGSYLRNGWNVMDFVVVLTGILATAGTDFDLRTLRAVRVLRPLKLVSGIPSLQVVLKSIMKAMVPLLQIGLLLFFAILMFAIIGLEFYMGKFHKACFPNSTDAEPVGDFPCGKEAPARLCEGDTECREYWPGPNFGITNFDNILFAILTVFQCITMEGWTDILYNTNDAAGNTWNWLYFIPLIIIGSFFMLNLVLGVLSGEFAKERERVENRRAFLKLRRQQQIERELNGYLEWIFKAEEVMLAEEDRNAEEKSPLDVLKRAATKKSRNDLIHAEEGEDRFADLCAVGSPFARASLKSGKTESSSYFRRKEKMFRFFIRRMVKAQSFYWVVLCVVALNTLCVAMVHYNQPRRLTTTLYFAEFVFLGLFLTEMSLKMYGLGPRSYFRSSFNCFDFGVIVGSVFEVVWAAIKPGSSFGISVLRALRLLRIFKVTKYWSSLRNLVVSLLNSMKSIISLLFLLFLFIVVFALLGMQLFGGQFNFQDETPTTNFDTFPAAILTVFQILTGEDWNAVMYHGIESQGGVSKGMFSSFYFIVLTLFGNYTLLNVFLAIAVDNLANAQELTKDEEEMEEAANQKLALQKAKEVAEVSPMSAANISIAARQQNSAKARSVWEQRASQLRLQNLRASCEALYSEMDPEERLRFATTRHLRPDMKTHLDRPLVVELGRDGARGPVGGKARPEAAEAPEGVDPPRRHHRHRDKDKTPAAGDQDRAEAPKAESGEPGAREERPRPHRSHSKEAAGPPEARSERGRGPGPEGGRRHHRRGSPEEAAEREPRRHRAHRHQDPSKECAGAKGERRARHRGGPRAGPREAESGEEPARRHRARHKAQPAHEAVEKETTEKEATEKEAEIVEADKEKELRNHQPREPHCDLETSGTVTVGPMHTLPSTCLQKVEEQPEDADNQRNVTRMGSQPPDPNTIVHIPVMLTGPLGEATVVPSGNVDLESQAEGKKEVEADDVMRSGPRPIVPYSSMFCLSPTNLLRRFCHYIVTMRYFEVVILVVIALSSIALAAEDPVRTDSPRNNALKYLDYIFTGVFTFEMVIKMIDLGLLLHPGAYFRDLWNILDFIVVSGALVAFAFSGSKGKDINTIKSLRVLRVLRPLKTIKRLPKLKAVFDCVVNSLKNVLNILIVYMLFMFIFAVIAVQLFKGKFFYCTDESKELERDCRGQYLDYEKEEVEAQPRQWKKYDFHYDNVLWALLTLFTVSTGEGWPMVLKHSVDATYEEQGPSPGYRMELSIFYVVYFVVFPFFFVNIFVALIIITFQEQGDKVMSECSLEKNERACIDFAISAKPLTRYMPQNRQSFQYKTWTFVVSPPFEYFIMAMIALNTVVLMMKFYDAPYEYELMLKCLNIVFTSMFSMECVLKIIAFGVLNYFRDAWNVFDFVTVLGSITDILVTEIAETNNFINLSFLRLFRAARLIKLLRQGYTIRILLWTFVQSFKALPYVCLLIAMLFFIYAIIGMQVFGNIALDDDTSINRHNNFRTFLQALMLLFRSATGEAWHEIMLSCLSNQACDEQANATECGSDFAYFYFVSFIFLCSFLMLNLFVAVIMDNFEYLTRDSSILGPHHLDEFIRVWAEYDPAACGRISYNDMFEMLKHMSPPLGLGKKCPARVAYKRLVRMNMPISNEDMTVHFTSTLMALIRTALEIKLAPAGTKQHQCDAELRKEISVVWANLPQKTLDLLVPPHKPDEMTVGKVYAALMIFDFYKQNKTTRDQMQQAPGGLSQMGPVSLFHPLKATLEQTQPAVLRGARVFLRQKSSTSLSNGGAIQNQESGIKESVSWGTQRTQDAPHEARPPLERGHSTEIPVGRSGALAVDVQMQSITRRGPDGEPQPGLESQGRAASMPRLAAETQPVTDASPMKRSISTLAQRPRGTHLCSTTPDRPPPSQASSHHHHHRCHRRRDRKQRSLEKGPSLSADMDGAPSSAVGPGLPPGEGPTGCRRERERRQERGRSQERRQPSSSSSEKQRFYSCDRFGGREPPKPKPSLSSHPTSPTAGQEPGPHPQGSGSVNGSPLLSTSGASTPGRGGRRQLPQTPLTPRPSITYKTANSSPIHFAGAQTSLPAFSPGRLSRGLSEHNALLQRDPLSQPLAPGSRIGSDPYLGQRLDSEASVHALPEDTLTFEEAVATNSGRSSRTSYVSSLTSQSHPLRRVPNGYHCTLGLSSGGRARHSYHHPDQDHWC
Chain of human Cav2.2 (P54289 25-956 partner limits assumed): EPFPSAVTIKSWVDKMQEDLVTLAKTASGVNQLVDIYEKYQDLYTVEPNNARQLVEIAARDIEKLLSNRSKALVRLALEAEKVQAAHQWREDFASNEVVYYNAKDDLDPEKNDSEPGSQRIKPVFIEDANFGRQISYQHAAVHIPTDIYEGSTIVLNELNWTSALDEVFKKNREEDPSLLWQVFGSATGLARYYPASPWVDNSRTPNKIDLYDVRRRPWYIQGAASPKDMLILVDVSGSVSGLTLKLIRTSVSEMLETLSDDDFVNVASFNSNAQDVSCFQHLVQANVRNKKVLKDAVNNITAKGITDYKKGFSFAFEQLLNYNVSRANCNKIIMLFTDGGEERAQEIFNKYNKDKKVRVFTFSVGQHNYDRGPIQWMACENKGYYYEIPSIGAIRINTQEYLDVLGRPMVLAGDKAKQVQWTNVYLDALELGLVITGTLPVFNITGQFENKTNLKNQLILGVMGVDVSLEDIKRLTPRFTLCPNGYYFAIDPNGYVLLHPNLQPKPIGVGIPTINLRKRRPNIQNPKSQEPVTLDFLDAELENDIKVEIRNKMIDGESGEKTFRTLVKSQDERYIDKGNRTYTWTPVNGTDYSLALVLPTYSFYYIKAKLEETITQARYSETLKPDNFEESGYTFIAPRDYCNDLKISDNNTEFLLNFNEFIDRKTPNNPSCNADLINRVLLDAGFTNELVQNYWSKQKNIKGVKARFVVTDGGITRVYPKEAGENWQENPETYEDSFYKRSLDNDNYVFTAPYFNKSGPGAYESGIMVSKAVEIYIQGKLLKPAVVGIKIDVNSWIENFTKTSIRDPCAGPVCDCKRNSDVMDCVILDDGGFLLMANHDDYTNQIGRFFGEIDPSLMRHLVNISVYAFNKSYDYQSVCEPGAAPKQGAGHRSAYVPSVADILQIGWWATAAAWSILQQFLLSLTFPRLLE
Chain of human Cav2.2 (P54289 957-1103 partner limits assumed): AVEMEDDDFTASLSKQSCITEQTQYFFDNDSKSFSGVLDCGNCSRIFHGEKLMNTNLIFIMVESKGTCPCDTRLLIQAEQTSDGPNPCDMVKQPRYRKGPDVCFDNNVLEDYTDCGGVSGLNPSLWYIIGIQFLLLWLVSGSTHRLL
Chain of human Cav2.2 (P54284 whole entry partner): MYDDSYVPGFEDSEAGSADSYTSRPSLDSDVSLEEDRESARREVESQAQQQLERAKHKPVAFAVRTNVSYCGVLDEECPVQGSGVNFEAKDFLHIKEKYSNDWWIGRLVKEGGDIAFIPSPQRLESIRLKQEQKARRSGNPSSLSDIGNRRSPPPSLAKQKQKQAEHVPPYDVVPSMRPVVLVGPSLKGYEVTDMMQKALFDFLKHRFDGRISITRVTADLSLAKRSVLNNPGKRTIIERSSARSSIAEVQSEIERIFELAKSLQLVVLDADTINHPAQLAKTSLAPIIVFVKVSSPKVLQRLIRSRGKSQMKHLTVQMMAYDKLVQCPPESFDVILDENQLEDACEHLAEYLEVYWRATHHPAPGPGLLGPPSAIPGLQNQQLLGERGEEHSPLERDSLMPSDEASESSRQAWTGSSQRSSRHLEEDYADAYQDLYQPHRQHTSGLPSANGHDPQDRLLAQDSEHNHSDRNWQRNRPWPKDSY
Conditions: not given
Summed up:
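IC50 values derive from nonlinear sigmoidal fitting of percent inhibition, relative to inhibitor-free activity, of Ca2+ influx read by FLIPR. Cells were IMR32 human neuroblastoma, plated at 1−1.2×10^5 per well and grown 48 h at 37 °C.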
`CN[C@@H](CC(C)C)C(=O)N[C@H]1CC[C@@H]2CN(c3ccc(F)c(C(F)(F)F)c3)C[C@@H]21` [Example 621, N-{(3aR,4S,6aS)-2-[4-fluoro-3-(trifluoromethyl)phenyl]octahydrocyclopenta[c]pyrrol-4-yl}-N^2-methyl-L-leucinamide]: the pIC50 is 6.00.

In the case of `CN[C@H](C(=O)N[C@H]1CC[C@@H]2CN(c3cccc(C(F)(F)F)c3)C[C@@H]21)C(C)C` [Example 757, N^2-methyl-N-{(3aR,4S,6aS)-2-[3-(trifluoromethyl)phenyl]octahydrocyclopenta[c]pyrrol-4-yl}-L-valinamide], the negative logarithm of the IC50 (pIC50) was 5.95. On the same count and under the same terms, the value for `O=C(N[C@H]1CC[C@@H]2CN(c3cccc(F)c3)C[C@@H]21)[C@@H]1C[C@@H](F)CN1` [Example 640, (4R)-4-fluoro-N-[(3aR,4S,6aS)-2-(3-fluorophenyl)octahydrocyclopenta[c]pyrrol-4-yl]-L-prolinamide] was 4.84; that for `Fc1ccc2nc(CN[C@H]3CC[C@@H]4CN(c5cccc(C(F)(F)F)n5)C[C@@H]43)[nH]c2c1` [Example 691, (3aR,4S,6aS)-N-[(6-fluoro-1H-benzimidazol-2-yl)methyl]-2-[6-(trifluoromethyl)pyridin-2-yl]octahydrocyclopenta[c]pyrrol-4-amine] was 6.21; that for `FC(F)(F)c1cccc(N2C[C@H]3CC[C@H](NCc4nc5ccccc5[nH]4)[C@H]3C2)n1` [Example 683, (3aR,4S,6aS)-N-(1H-benzimidazol-2-ylmethyl)-2-[6-(trifluoromethyl)pyridin-2-yl]octahydrocyclopenta[c]pyrrol-4-amine] was 6.15. For the compound `CN[C@@H](CC(C)C)C(=O)N[C@@H]1CC[C@H]2CN(c3ccc(C(F)(F)F)cn3)C[C@H]21` [Example 738, N^2-methyl-N-{(3aS,4R,6aR)-2-[5-(trifluoromethyl)pyridin-2-yl]octahydrocyclopenta[c]pyrrol-4-yl}-L-leucinamide], the negative-log IC50 (pIC50) is 5.53. The same measure, in the same setting: as for `O=C(N[C@H]1CC[C@@H]2CN(c3ccnc(C(F)(F)F)c3)C[C@@H]21)[C@@H]1C[C@@H](F)CN1` [Example 638, (4R)-4-fluoro-N-{(3aR,4S,6aS)-2-[2-(trifluoromethyl)pyridin-4-yl]octahydrocyclopenta[c]pyrrol-4-yl}-L-prolinamide], the figure is less than 4.52; as for `COc1cccc2[nH]cc(CN[C@H]3CC[C@@H]4CN(c5cccc(C(F)(F)F)n5)C[C@@H]43)c12` [Example 689, (3aR,4S,6aS)-N-[(4-methoxy-1H-indol-3-yl)methyl]-2-[6-(trifluoromethyl)pyridin-2-yl]octahydrocyclopenta[c]pyrrol-4-amine], 6.09. Same read-out and setting: as for `CS(=O)(=O)N1CCCC[C@H]1C(=O)N[C@@H]1CC[C@H]2CN(Cc3ccccc3)C[C@H]21` [Example 514, (2S)-N-[(3aS,4R,6aR)-2-benzyloctahydrocyclopenta[c]pyrrol-4-yl]-1-(methylsulfonyl)piperidine-2-carboxamide], the figure is less than 4.65.

`CCC[C@H](NC)C(=O)N[C@H]1CC[C@@H]2CN(Cc3ccccc3)C[C@@H]21` [Example 365, N^1-[(3aR,4S,6aS)-2-benzyloctahydrocyclopenta[c]pyrrol-4-yl]-N^2-methyl-L-norvalinamide]: the pIC50 was less than 4.52. On the same count and under the same terms, the value for `CN[C@@H](CC(C)C)C(=O)N[C@H]1CC[C@@H]2CN(c3ccc(C#N)cc3)C[C@@H]21` [Example 647, N-[(3aR,4S,6aS)-2-(4-cyanophenyl)octahydrocyclopenta[c]pyrrol-4-yl]-N^2-methyl-L-leucinamide] was 5.42; that for `Cc1c[nH]c(CN[C@H]2CC[C@@H]3CN(c4cccc(C(F)(F)F)n4)C[C@@H]32)n1` [Example 670, (3aR,4S,6aS)-N-[(4-methyl-1H-imidazol-2-yl)methyl]-2-[6-(trifluoromethyl)pyridin-2-yl]octahydrocyclopenta[c]pyrrol-4-amine] was 5.93. On the same count and under the same terms, as for `CN[C@@H](CC(C)C)C(=O)N[C@H]1CC[C@@H]2CN(c3cncc(C(F)(F)F)c3)C[C@@H]21` [Example 736, N^2-methyl-N-{(3aR,4S,6aS)-2-[5-(trifluoromethyl)pyridin-3-yl]octahydrocyclopenta[c]pyrrol-4-yl}-L-leucinamide], the figure is 5.48; as for `CCC[C@H](NC)C(=O)N[C@@H]1CC[C@@H]2CN(Cc3ccccc3)C[C@@H]21` [Example 363, N^1-[(3aR,4R,6aS)-2-benzyloctahydrocyclopenta[c]pyrrol-4-yl]-N^2-methyl-L-norvalinamide], less than 4.52; as for `O=C(N[C@H]1CC[C@H]2CN(Cc3cccc(OC(F)(F)F)c3)C[C@H]21)C(C1CCCCC1)C1CCCCC1` [Example 63, 2,2-dicyclohexyl-N-{(3aS,4S,6aR)-2-[3-(trifluoromethoxy)benzyl]octahydrocyclopenta[c]pyrrol-4-yl}acetamide], 6.29. Take `Cn1c(CN[C@H]2CC[C@@H]3CN(c4cccc(C(F)(F)F)n4)C[C@@H]32)nc2ccccc21` [Example 731, (3aR,4S,6aS)-N-[(1-methyl-1H-benzimidazol-2-yl)methyl]-2-[6-(trifluoromethyl)pyridin-2-yl]octahydrocyclopenta[c]pyrrol-4-amine]: the pIC50 is 6.03. Take `CC(C)CC(=O)N[C@H]1CC[C@@H]2CN(Cc3ccccc3)C[C@@H]21` [Example 230, N-[(3aR,4S,6aS)-2-benzyloctahydrocyclopenta[c]pyrrol-4-yl]-3-methylbutanamide]: the negative-log IC50 (pIC50) was less than 4.52. Same read-out and setting: as for `O=C(N[C@H]1CC[C@H]2CN(Cc3cccc(C(F)(F)F)c3)C[C@H]21)C(C1CCCCC1)C1CCCCC1` (relative stereo) [Example 124, 2,2-dicyclohexyl-N-{(3aS*,4S*,6aR*)-2-[3-(trifluoromethyl)benzyl]octahydrocyclopenta[c]pyrrol-4-yl}acetamide], the figure is 5.97.

The same experiment, now with this note: read-out: IC50 (μM) or percent inhibition (* indicates 3 minute incubation, otherwise 60 minute); IC50; 60 minute pre-incubation with compound; IMR32 cells, 80 mM KCl depolarization.
On to `CC(C)C[C@H](NS(C)(=O)=O)C(=O)N[C@@H]1CC[C@H]2CN(Cc3cccc(C(F)(F)F)c3)C[C@H]21` [Example 170, N^2-(methylsulfonyl)-N^1-{(3aS,4R,6aR)-2-[3-(trifluoromethyl)benzyl]octahydrocyclopenta[c]pyrrol-4-yl}-L-leucinamide], for which the 50% inhibitory concentration (IC50) turned out to be 4.55 µM. Consider `Cc1ccccc1CN1C[C@H]2CC[C@H](NC(=O)C(c3ccccc3)C(C)C)[C@H]2C1` (stereo partly drawn) [Example 92, 3-methyl-N-[(3aR,4S,6aS)-2-(2-methylbenzyl)octahydrocyclopenta[c]pyrrol-4-yl]-2-phenylbutanamide], for which the IC50 was 2.04 µM. Same read-out and setting: the value for `Cc1ccc(CN2C[C@@H]3CC[C@H](NC(=O)C(C4CCCCC4)C4CCCCC4)[C@@H]3C2)cc1` [Example 62, 2,2-dicyclohexyl-N-[(3aS,4S,6aR)-2-(4-methylbenzyl)octahydrocyclopenta[c]pyrrol-4-yl]acetamide] was 1.64 µM.

For `O=C(N[C@H]1CC[C@H]2CN(CCCc3ccccc3)C[C@H]21)C(C1CCCCC1)C1CCCCC1` [Example 69, 2,2-dicyclohexyl-N-[(3aS,4S,6aR)-2-(3-phenylpropyl)octahydrocyclopenta[c]pyrrol-4-yl]acetamide], the IC50 was 1.69 µM. On to `O=S(=O)(c1cccc(C(F)(F)F)c1)N1C[C@@H]2CC[C@@H](NC(c3ccccc3)c3ccccc3)[C@@H]2C1` [Example 467, (3aS,4R,6aR)-N-benzhydryl-2-{[3-(trifluoromethyl)phenyl]sulfonyl}octahydrocyclopenta[c]pyrrol-4-amine], for which the half-inhibitory concentration (IC50) is 3.5 µM.
